# Measured values taken from US20250135071A1, “USE OF POLYPEPTIDE IN PROMOTION OF CARTILAGE REGENERATION OR REPAIR” (HANGZHOU HUIBO SCIENCE AND TECHNOLOGY CO., LTD, priority 2021, published 2025).
# Legend:
# [1] = test system: rabbit temporomandibular joint condylar osteochondral defect (3 mm*3 mm); test: Macroscopic (ICRS) evaluation of repair of rabbit condylar osteochondral defect; format: in vivo, New Zealand white rabbits; conditions: overall conclusion, 1 to 4 weeks
# Text: 54 adult male New Zealand white rabbits (Zhejiang Chinese Medical University, IACUC-20180625-04) were randomized into 3 groups, with 18 rabbits in each group. The 54 rabbits were operated at right condyle, while the left condyle remained intact.
# They were divided into 3 groups, of which group 1 was a control group without any treatment in the defect region; group 2 was a Gel-MA group implanted with Gel-MA hydrogel in the defect region; and group 3 was a Hst1/Gel-MA group implanted with HST1 functionalized Gel-MA in the defect region (provided in Example 1). […]
# (§1) At 1, 2 and 4 weeks after operation, 6 animals in each group were randomly selected for euthanasia. The right temporomandibular joint and surrounding tissues thereof were taken out, and the gross specimens were evaluated by macroscopic scoring, and statistically analyzed.
# The macroscopic scoring evaluation of the gross specimens adopted a macroscopic scoring system of the International Cartilage Repair Society (ICRS), and the gross appearance of the defect site was photographed and subjected to blind evaluation by 3 independent graders. The scoring system evaluated the cartilage repair in the defect region from four aspects: the degree of repair, the integration of a boundary area, a macroscopic appearance and the overall repair evaluation. […]
# [2] = test system: rabbit temporomandibular joint condylar osteochondral defect (3 mm*3 mm); test: Histological evaluation (H&E, histomorphometry, MODS score) of repaired osteochondral defect; format: in vivo, New Zealand white rabbits; conditions: group 3
# Protocol: as §1, with “In this example, 3 groups of rabbits provided in Example 2 were used, and at” for “At”, “analyzed for tissue morphology” for “evaluated by macroscopic scoring,”
# (§2) Histological examination steps were as follows: in an environment of 4° C., the specimens used for histological analysis were fixed in 10% neutral formalin (Sig-ma-Aldrich, USA) for 24 hours, and decalcified with a 10% ethylenediaminetetraacetic acid (EDTA) buffer solution (Sigma-Aldrich, USA) for 28 days. The sample was embedded in paraffin wax (Sigma-Aldrich, USA), cut into 4 μm thick sagittal sections, and subjected to staining with hemotoxylin and cosin, Masson trichrome and Alcian Blue (Sigma Aldrich, USA). The sections were detected immunohistochemically for the contents of the type II collagen and Aggrecan. All the sections were observed and photographed by utilizing an optical microscope (CX51; Olympus) and a digital charge coupled device camera (TrueChrome Metrics; Tucsen Photonics). These sections were scored blindly by 3 experienced pathologists with an improved O'Driscoll scoring system (MODS).
# (§3) The steps of histological morphology analysis were as follows: in all the sample sections, the original defect region was a 3*3 mm square. The top of the square was flush with the cartilage surfaces on both sides. The percentages of areas of the new subchondral bone, the cartilage, the collagen fiber and the glycosaminoglycan (GAG) in the total area of the defect region was detected with image analysis software (image pro plus 6.0). Their respective contents were expressed as integrated optical density (IOD) of the type II collagen and Aggrecan measured by Image pro plus 6.0.
# At 4 weeks after operation, the tissues were retrieved for histological treatment and sectioning. According to the implants in the defect region, they were divided into a group 1 as the control group (A in FIG. 3, A1-A2), a group 2 as the Gel-MA group (B in FIG. 3, B1-B2) and a group 3 as the Hst1/Gel-MA group (C in FIG. 3, C1-C2). The dotted square area in FIG. 3 was the original defect region (3 mm*3 mm). A-C scale=500 μm. […]
# The quantitative analysis of areas of new cartilage and subchondral bones and the MODS score results of repairing osteochondral defects at 1, 2 and 4 weeks after operation were shown in FIG. 4. In FIG. 4, A was the quantitative analysis of the area of the new cartilage, B was the quantitative analysis of the area of the subchondral bone, and C, D and E were the MODS score results of repairing osteochondral defects at 1, 2 and 4 weeks after operation, respectively. […]
# [3] = test system: defect region of a critical size in rabbit condyle; test: Effect of Hst1 dose in Gel-MA on cartilage repair (H&E histology); format: in vivo; conditions: 2 weeks
# Text: In order to determine the optimal concentration of Hst1 for promoting osteochondral repair, Gel-M and 3 different doses of Hst1 at (A, A1) 50, (B, B1) 500, and (C, C1) 1,000 (μg)/sample were implanted in the defect region of a critical size in rabbit condyle, and the tissues were taken out at 2 weeks after operation, subjected to histological treatment and sectioned to explore the cartilage repair effects of the 3 different concentrations of Hst1.
# The 3 different concentrations of Hst1 were set as follows: group A: 50 μg of Hst1+21.1 μl of a Gel-MA prepolymer solution; group B: 500 μg of Hst1+21.1 μl of a Gel-MA prepolymer solution; and group C: 1,000 μg of Hst1+21.1 μl of a Gel-MA prepolymer solution (the model volume of condylar defect was 21.1 μl/sample).
# The optical photomicrographs of H&E stained tissue sections of rabbit condyle for comparison were shown in FIG. 8, wherein the dotted square area was the original defect region (3 mm*3 mm), the A-C scale was 500 μm; and the A1-C1 scale=50 μm. […] Therefore, 500 μg of Hst1/sample (500 μg of Hst1+21.1 μl of Gel-MA) was selected as the preferred concentration.
# collagen fibers = test: Masson trichrome staining, collagen fiber area in defect region; format: in vivo, New Zealand white rabbits; conditions: 2 and 4 weeks; group 3 versus groups 2 and 1; P<0.05
# Protocol: as §2, with “All the sections were observed and photographed by utilizing an optical microscope (CX51; Olympus) and a digital charge coupled device camera (TrueChrome Metrics; Tucsen Photonics).” left out
# as §3, with “The top of the square was flush with the cartilage surfaces on both sides.” left out, “6.0. […]” for “6.0.”
# type II collagen = test: Immunohistochemistry of type II collagen in repaired tissue; format: in vivo, New Zealand white rabbits
# Protocol: as §2, with “All the sections were observed and photographed by utilizing an optical microscope (CX51; Olympus) and a digital charge coupled device camera (TrueChrome Metrics; Tucsen Photonics).” left out
# as §3, with “The top of the square was flush with the cartilage surfaces on both sides.” left out, “6.0. […]” for “6.0.”
# Aggrecan = test: Immunohistochemistry of Aggrecan in repaired tissue; format: in vivo, New Zealand white rabbits
# Protocol: as §2, with “All the sections were observed and photographed by utilizing an optical microscope (CX51; Olympus) and a digital charge coupled device camera (TrueChrome Metrics; Tucsen Photonics).” left out
# as §3, with “The top of the square was flush with the cartilage surfaces on both sides.” left out, “6.0. […]” for “6.0.”
# glycosaminoglycan (GAG) = test: Alcian Blue staining, glycosaminoglycan (GAG) area in defect region; format: in vivo, New Zealand white rabbits; conditions: 2 and 4 weeks; group 3 versus groups 2 and 1; P<0.05
# Protocol: as §2, with “All the sections were observed and photographed by utilizing an optical microscope (CX51; Olympus) and a digital charge coupled device camera (TrueChrome Metrics; Tucsen Photonics).” left out
# as §3, with “The top of the square was flush with the cartilage surfaces on both sides.” left out, “6.0. […]” for “6.0.”
# [4] = 4 weeks after operation, group 3
# [5] = 4 weeks, group 3, quantitative analysis (IOD)
substance,measurement,setting,value
Histatin-1 polypeptide (DSHEKRHHGYRRKFHEKHHSHREFPFYGDYGSNYLYDN; linear Hst1),effect on promoting the repair of cartilage injury (macroscopic),[1],very significant effect on promoting the repair of cartilage injury
same,histological observation of defect region,[2]; 1 week after operation,a new tissue was observed in the pores of the undegraded scaffold
same,histological observation of defect region,[2]; 2 weeks after operation,"new cartilage and bone tissues gradually grew, infiltrated and replaced the scaffold"
same,histological observation of defect region,[2]; 4 weeks after operation,the new cartilage proliferated and migrated to the center site of the defect
same,new blood vessels at junction between subchondral bone and functionalized hydrogel,[2]; 4 weeks after operation,formation of new blood vessels could be detected
same,histological repair of defect region,[3]; group A: 50 μg of Hst1+21.1 μl Gel-MA prepolymer solution,"no new tissue was generated, and only a small amount of cell infiltration was detected"
same,histological repair of defect region,[3]; group B: 500 μg of Hst1+21.1 μl Gel-MA prepolymer solution,several new cartilage islands could be obviously observed
same,histological repair of defect region,"[3]; group C: 1,000 μg of Hst1+21.1 μl Gel-MA prepolymer solution","a large number of new subchondral bones were generated, but almost no new cartilage tissue was detected"
same,area percentages of the collagen fibers in the new cartilage and the subchondral bone in the total area of the defect region,collagen fibers,significantly higher than those in the groups 2 and 1
same,expression of the type II collagen in the new cartilage tissue,type II collagen; [4],close to those in the normal cartilage tissue
same,expression of the type II collagen compared with the groups 2 and 1,type II collagen; [5],more significant
same,expression of Aggrecan in the new cartilage tissue,Aggrecan; [4],close to those in the normal cartilage tissue
same,expression of Aggrecan compared with the groups 2 and 1,Aggrecan; [5],more significant
same,area percentages of glycosaminoglycan (GAG) in the new cartilage and the subchondral bone in the total area of the defect region,glycosaminoglycan (GAG),significantly higher than those in the groups 2 and 1
